Measured values taken from PMC9788418, “Design, Synthesis and Biological Evaluation of Syn and Anti-like Double Warhead Quinolinones Bearing Dihydroxy Naphthalene Moiety as Epidermal Growth Factor Receptor Inhibitors with Potential Apoptotic Antiproliferative Action” (Molecules, 2022).
Several values for one entry are separate records, joined by “and”; a condition that tells them apart may be missing. Equal values may be shown once.

What was measured:
[1] = Cell viability assay (MTT) on normal cell line; assay type: cell-based, human; conditions: human, MCF-10A mammary gland epithelial cells, four days
Experimental: A cell viability test was performed using MCF-10A (human mammary gland epithelial) cell line to investigate the effect of 4a–e and 7a–e on normal cell lines. In this investigation, a concentration of 50 µM of the studied compound is employed for four days, after which cell viability is assessed.
4.2. Biological evaluation
4.2.1. Cytotoxic activity using MTT Assay and evaluation of IC50
MTT assay was carried out to study the effect of compounds on mammary epithelial cells (MCF-10A). The medium in which cells were propagated contained Dulbecco's modified Eagle's medium (DMEM)/ Ham's F-12 medium (1:1) supplemented with epidermal growth factor (20 ng/mL), hydrocortisone (500 ng/mL), insulin (10 μg/mL), 2 mM glutamine and 10% foetal calf serum. After every 2-3 days, the cells were passaged using trypsin ethylenediamine tetra acetic acid (EDTA). The cells were seeded at a density of 10^4 cells mL-1 in flat-bottomed culture plates containing 96 wells each. After 24 h, medium was removed from the plates and the compounds in (in 0.1% DMSO) were added (in 200 μL medium to yield a final concentration of 0.1% v/v) to the wells of plates. A single compound was designated with four wells followed by incubation of plates for 96h at 37°C. After incubation, medium was removed completely from the plates followed by addition of MTT (0.4 mg/mL in medium) to each well and subsequent incubation of plates for 3h. MTT (along with the medium) was removed and DMSO (150μL) was added to each well of the culture plates, followed by vortexing and subsequent measurement of absorbance (at 540 nm) using microplate reader. […]

[2] = system: caspase-3; assay: Caspase-3 activation assay; conditions: for Caspase-3 Conc: A-549; for Caspase-3 Fold Change: A-549, vs control untreated cells
Experimental: (§1) record autophosphorylation level, EGFR kinase assay was carried out based on DELFIA/Time-
(§2) Resolved Fluorometry. The compounds were first dissolved in DMSO absolute, after dilution to
Each compound (10 µL) was incubated
(§3) with recombinant enzyme (10 µL, 5 ng for EGFR, 1:80 dilution in 100 mM HEPES) for 10 min at
(§4) 25 °C, after the addition of 5X buffer (10 µL, containing 2 mM MnCl2, 100 µM Na3VO4, 20 mM HEPES and 1 mM DTT) and ATP-MgCl2 (20 µL, containing 0.1 mM ATP and 50 mM MgCl2) and
(§5) incubation for 1h. The negative and positive controls were included in each plate by the incubation
(§6) of enzyme either with or without ATP-MgCl2. The liquid was removed after incubation and the plates
(§7) were washed thrice using wash buffer. Europium-tagged antiphosphotyrosine antibody (75 µL, 400
(§8) ng) was added to each well followed by incubation of 1h and then washing of the plates using buffer.
(§9) The enhancement solution was added to each well and the signal was recorded at excitation and
(§10) The autophosphorylation percentage inhibition by compounds was calculated using the following equation:

[3] = target: EGFR (Homo sapiens, UniProt P00533); assay: EGFR inhibitory assay (EGFR-TK, DELFIA/time-resolved fluorometry)
Chain of EGFR (P00533 669-1210): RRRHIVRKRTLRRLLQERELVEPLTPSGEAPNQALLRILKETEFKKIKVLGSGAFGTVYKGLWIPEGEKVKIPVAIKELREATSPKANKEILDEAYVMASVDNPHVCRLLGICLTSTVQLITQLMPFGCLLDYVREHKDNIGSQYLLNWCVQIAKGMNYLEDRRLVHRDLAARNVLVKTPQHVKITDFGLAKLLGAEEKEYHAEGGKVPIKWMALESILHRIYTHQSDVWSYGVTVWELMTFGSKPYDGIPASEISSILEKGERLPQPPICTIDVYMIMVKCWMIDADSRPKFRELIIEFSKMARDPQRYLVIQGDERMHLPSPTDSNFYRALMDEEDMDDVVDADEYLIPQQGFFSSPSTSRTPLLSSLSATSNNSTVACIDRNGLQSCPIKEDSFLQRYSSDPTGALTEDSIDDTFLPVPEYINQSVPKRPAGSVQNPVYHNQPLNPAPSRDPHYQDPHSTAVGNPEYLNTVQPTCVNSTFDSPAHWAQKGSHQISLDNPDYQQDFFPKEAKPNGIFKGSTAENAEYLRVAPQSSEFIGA
Experimental: EGFR-TK assay was performed to evaluate the inhibitory potency of novel compounds against
EGFR. Baculoviral expression vectors including pBlueBacHis2B and pFASTBacHTc were used
5ʹ upstream to the EGFR sequence comprised a sequence that encoded (His)6. Sf-9 cells were infected for 72h for protein expression. The pellets of Sf-9 cells were solubilized in a buffer containing sodium vanadate (100 µM), aprotinin (10 µg/mL), triton (1%), HEPES buffer (50mM), ammonium molybdate (10 µM), benzamidine HCl (16 µg/mL), NaCl (10 mM), leupeptin (10 µg/mL) and pepstatin (10 µg/mL) at 0°C for 20 min at pH 7.4, followed by centrifugation for 20 min.
To eliminate the non-specifically bound material, a Ni-NTA super flow packed column was used to pass through and wash the crude extract supernatant first with 10 mM and then with 100 mM imidazole. Histidine-linked proteins were first eluted with 250 and then with 500 mM imidazole after (1 picture or pasted object on this page, not shown here)
dialysis against NaCl (50 mM), HEPES (20 mM), glycerol (10%) and 1 µg/mL each of aprotinin, leupeptin and pepstatin for 120 min. The purification was performed either at 4 °C or on ice. To
as §1, §2
Each compound (10 µL) was incubated
as §3, §4, §5, §6, §7, §8, §9, §10

| melting point [°C] | IC50 [3] [nM] | fold less effective than erlotinib (EGFR IC50) ([3]; relative to erlotinib) | SMILES | viability at 96 h, 50 µM [1] [%] | Caspase-3 Conc [2] [pg/mL] | Caspase-3 Fold Change [2] |
| --- | --- | --- | --- | --- | --- | --- |
| > 360 | 64 ± 6 | – | O=c1cc(-n2cc(COc3cccc4cccc(OCc5cn(-c6cc(=O)[nH]c7ccccc67)nn5)c34)nn2)c2ccccc2[nH]1 [Compound 4a, 4,4′-(((naphthalene-1,8-diylbis(oxy))bis(methylene))bis(1H-1,2,3-triazole-4,1-diyl))-bis-(quinolin-2(1H)-one)] | 91 | 587.50 ± 4.50 | 9 and 8.95 |
| – | 93 ± 9 | roughly 1.3 fold | Cc1ccc2[nH]c(=O)cc(-n3cc(COc4cccc5cccc(OCc6cn(-c7cc(=O)[nH]c8ccc(C)cc78)nn6)c45)nn3)c2c1 [Compound 4b, 4,4′-(((naphthalene-1,8-diylbis(oxy))bis(methylene))bis(1H-1,2,3-triazole-4,1-diyl))-bis(6-methylquinolin-2(1H)-one)] | 89 | 535.50 ± 4.50 | 8 and 8.15 |
